A value given as a limit tells only on which side of the number the result lay.

The first assay relates to Q7 cells (ST HDH Q7/7; immortalized mouse striatal cells). Description: Q7 Cystine Deprivation cell survival (rescue) assay. The format is cell-based. As to conditions: 18 h, read-out: Q7 Cystine Deprivation Survival EC50. The text has this: In neuronal cells excess extracellular glutamate inhibits the cystine/glutamate antiporter leading to intracellular cysteine depletion, GSH depletion, reactive oxygen species (ROS) production and cell death, a phenomenon termed oxidative glutamate toxicity, oxytosis, or ferroptosis. […] Q7 cells (ST HDH Q7/7; immortalized mouse striatal cells) challenged with cystine-free media or the selective, irreversible GPX4 inhibitor, methyl (1S,3R)-2-(2-chloroacetyl)-1-(4-(methoxycarbonyl)phenyl)-2,3,4,9-tetrahydro-1H-pyrido[3,4-b]indole-3-carboxylate (hereafter referred to as RSL3), recapitulate this phenotype, as do normal human fibroblasts (NHF) challenged with RSL3. An initial screen was performed to identify compounds effective in rescuing Q7 and/or NHF cells from death resulting from cystine deprivation or RSL3 challenge. This method is further described in Yonezawa et al., J. Neurochem 67, 566-573 (1996), Li et al., J Neurosci., 23, 5816-5826 (2003), Yang and Stockwell, Chem Biol., 15: 234-45 (2008), and Yang et al., Cell 156, 317-331 (2014). See also Hinman A, Holst C R, Latham J C, et al. Vitamin E hydroquinone is an endogenous regulator of ferroptosis via redox control of 15-lipoxygenase. PLoS One. 2018; 13(8):e0201369. Published 2018 Aug. 15. doi:10.1371/journal.pone.0201369; and Kahn-Kirby A H, Amagata A, Maeder C I, et al. Targeting ferroptosis: A novel therapeutic strategy for the treatment of mitochondrial disease-related epilepsy. PLoS One. 2019; 14(3):e0214250. Published 2019 Mar. 28. doi:10.1371/journal.pone.0214250.
DMEM (Catalog no. 11995-040), DMEM without Cystine (Catalog no. 21013-024), DMEM without Glucose (Catalog A1443001), PBS (Phosphate buffered saline), Penicillin-streptomycin mix, L-Glutamine, Glucose, Phenol Red, and Pyruvate were purchased from ThermoFisher Scientific (Gibco). Fetal Bovine Serum was obtained from Mediatech, Inc., or Sigma Aldrich. Mouse striatum derived ST HDH Q7/7 (Q7) and normal human skin fibroblast (NHF, product number GM21811) cells were obtained from the Coriell Institute. Methionine and Vitamin K2 were purchased from Sigma Aldrich. RSL3 was synthesized as previously described (see e.g. US Patent Publication US2010/0081654). Cell Titer Glo 2.0 was purchased from Promega. Q7 cell culture medium (Q7 growth medium) was made by combining 50 mL Fetal Bovine Serum, 100 U/mL penicillin, and 100 microgram/mL streptomycin; DMEM was added to make the volume up to 500 mL. Assay medium for the Cystine Deprivation assay was prepared by combining 50 mL Fetal Bovine Serum, 100 U/mL penicillin, 100 microgram/mL streptomycin, 4 mM L-Glutamine, 1 mM Pyruvate and 30 mg/L Methionine; DMEM without Cystine was added to make the volume up to 500 mL. NHF cell culture medium (NHF growth medium) was made by combining 50 mL Fetal Bovine Serum, 100 U/mL penicillin, 100 microgram/mL streptomycin, 2.8 mL 20% Glucose solution (final concentration 6 mM), L-glutamine (final concentration 2 mM), phenol red (final concentration 15 mg/L); DMEM without Glucose was added to make the volume up to 500 mL. Assay medium for the RSL3 challenge assay was identical to Growth medium. While not in use during the course of the experiments, these solutions were stored at 4° C. The cells were grown in 150-cm^2 tissue culture-treated flasks. Every third or fourth day, the cells were sub-cultured by trypsinization and re-seeded at a cell density of 600,000 (Q7) or 300,000 (NHF) cells per flask.
Q7 or NHF cells were cultured routinely as described herein. For 384-well cell survival assays, cells were seeded in clear bottom, black wall 384-well tissue culture-treated polystyrene plates by re-suspending a cell suspension at a density of 50,000 cells/mL in growth medium, then dispensing 60 microliters of cell suspension per well using either an electronic multichannel pipette or a Multidrop™ Combi Reagent Dispenser (ThermoFisher Scientific), corresponding to 3,000 cells/well. […]
As to `COc1cc2c(cc1OC)C(=O)C(Cc1ccc(C(F)(F)F)cn1)=C(C)C2=O` [Example 41, 6,7-dimethoxy-2-methyl-3-((5-(trifluoromethyl)pyridin-2-yl)methyl)naphthalene-1,4-dione], the EC50 (commonly the concentration that produces a half-maximal response) is less than 50 nM.

The same assay, now with this note: Q7 cells, cystine-free medium, 18 h, Cell Titer Glo, 50% relative viability vs Vitamin K2 (1 micromolar), read-out: Q7 Cystine Deprivation Survival EC50.
For `CC1=C(Cc2cc(C(F)(F)F)c(F)cn2)C(=O)c2ccccc2C1=O` [Example 2, 2-((5-fluoro-4-(trifluoromethyl)pyridin-2-yl)methyl)-3-methylnaphthalene-1,4-dione], the 50% effective concentration (EC50) is less than 50 nM.
On the same count and under the same terms, the same measure for `CC1=C(Cc2cc(C)c(F)cn2)C(=O)c2ccccc2C1=O` [Example 3, 2-((5-fluoro-4-methylpyridin-2-yl)methyl)-3-methylnaphthalene-1,4-dione]: less than 50 nM.
On the same count and under the same terms, with `CC1=C(Cc2cc(C)c(C(F)(F)F)cn2)C(=O)c2ccccc2C1=O` [Example 4, 2-methyl-3-((4-methyl-5-(trifluoromethyl)pyridin-2-yl)methyl)naphthalene-1,4-dione] the figure was less than 50 nM.
Same read-out and setting: the same measure for `CC1=C(Cc2ccc(C)nn2)C(=O)c2ccccc2C1=O` [Example 5, 2-methyl-3-((6-methylpyridazin-3-yl)methyl)naphthalene-1,4-dione]: less than 50 nM.
As to `CC1=C(Cc2ccc(C)cn2)C(=O)c2ccccc2C1=O` [Example 7, 2-methyl-3-((5-methylpyridin-2-yl)methyl)naphthalene-1,4-dione], the EC50 was less than 50 nM.
For the compound `CC1=C(Cc2cccc(C(F)(F)F)n2)C(=O)c2ccccc2C1=O` [Example 8, 2-methyl-3-((6-(trifluoromethyl)pyridin-2-yl)methyl)naphthalene-1,4-dione], the EC50 is less than 50 nM.
The same measure, in the same setting: the same measure for `CC1=C(Cc2ccc(C(F)(F)F)nn2)C(=O)c2ccccc2C1=O` [Example 10, 2-methyl-3-((6-(trifluoromethyl)pyridazin-3-yl)methyl)naphthalene-1,4-dione]: less than 50 nM; for `CC1=C(Cc2cc(C(F)(F)F)cnn2)C(=O)c2ccccc2C1=O` [Example 11, 2-methyl-3-((5-(trifluoromethyl)pyridazin-3-yl)methyl)naphthalene-1,4-dione]: less than 50 nM.
On the same count and under the same terms, the same measure for `CC1=C(Cc2cccnn2)C(=O)c2ccccc2C1=O` [Example 12, 2-methyl-3-(pyridazin-3-ylmethyl)naphthalene-1,4-dione]: less than 50 nM; for `CC1=C(Cc2cc(C)c(C)nn2)C(=O)c2ccccc2C1=O` [Example 13, 2-((5,6-dimethylpyridazin-3-yl)methyl)-3-methylnaphthalene-1,4-dione]: less than 50 nM.
As for `CC1=C(Cc2ccc(C(N)=O)nn2)C(=O)c2ccccc2C1=O` [Example 14, 6-((3-methyl-1,4-dioxo-1,4-dihydronaphthalen-2-yl)methyl)pyridazine-3-carboxamide], the concentration for a half-maximal effect (EC50) was less than 50 nM.
Same read-out and setting: with `CC1=C(Cc2cc(C)cnn2)C(=O)c2ccccc2C1=O` [Example 15, 2-methyl-3-((5-methylpyridazin-3-yl)methyl)naphthalene-1,4-dione] the figure was less than 50 nM.
For the compound `CCOc1cnnc(CC2=C(C)C(=O)c3ccccc3C2=O)c1` [Example 16, 2-((5-ethoxypyridazin-3-yl)methyl)-3-methylnaphthalene-1,4-dione], the EC50 is less than 50 nM.
Still for that read-out and setting: with `COc1nnc(CC2=C(C)C(=O)c3ccccc3C2=O)cc1C(F)(F)F` [Example 17, 2-((6-methoxy-5-(trifluoromethyl)pyridazin-3-yl)methyl)-3-methylnaphthalene-1,4-dione] the figure was less than 50 nM; with `COc1nnc(CC2=C(C)C(=O)c3ccccc3C2=O)cc1C` [Example 18, 2-((6-methoxy-5-methylpyridazin-3-yl)methyl)-3-methylnaphthalene-1,4-dione], greater than 1000 nM.
The same measure, in the same setting: with `CC1=C(Cc2ncc(C(F)(F)F)cn2)C(=O)c2ccccc2C1=O` [Example 19, 2-methyl-3-((5-(trifluoromethyl)pyrimidin-2-yl)methyl)naphthalene-1,4-dione] the figure was less than 50 nM; with `O=C1C=C(Cc2ccc(C(F)(F)F)cn2)C(=O)c2ccccc21` [Example 25, 2-((5-(trifluoromethyl)pyridin-2-yl)methyl)naphthalene-1,4-dione], 250 to 1000 nM; with `CC(C)CCC1=C(Cc2ccc(C(F)(F)F)cn2)C(=O)c2ccccc2C1=O` [Example 34, 2-isopentyl-3-((5-(trifluoromethyl)pyridin-2-yl)methyl)naphthalene-1,4-dione], 50 to 250 nM.
For `COc1ccc2c(c1)C(=O)C(Cc1ccc(C(F)(F)F)cn1)=C(C)C2=O` [Example 36, 6-methoxy-2-methyl-3-((5-(trifluoromethyl)pyridin-2-yl)methyl)naphthalene-1,4-dione], the EC50 is less than 50 nM.
The same measure, in the same setting: the same measure for `COc1ccc2c(c1)C(=O)C(C)=C(Cc1ccc(C(F)(F)F)cn1)C2=O` [Example 37, 6-methoxy-3-methyl-2-((5-(trifluoromethyl)pyridin-2-yl)methyl)naphthalene-1,4-dione]: less than 50 nM; for `Cc1ccc(CC2=C(C3CC3)C(=O)c3ccccc3C2=O)nc1` [Example 38, 2-cyclopropyl-3-((5-methylpyridin-2-yl)methyl)naphthalene-1,4-dione]: less than 50 nM.
The same measure, in the same setting: the same measure for `COc1cccc2c1C(=O)C(C)=C(Cc1ccc(C(F)(F)F)cn1)C2=O` [Example 40, 5-methoxy-3-methyl-2-((5-(trifluoromethyl)pyridin-2-yl)methyl)naphthalene-1,4-dione]: less than 50 nM; for `CC1=C(Cc2ccc(C(F)(F)F)cn2)C(=O)c2cc(F)ccc2C1=O` [Example 45, 6-fluoro-2-methyl-3-((5-(trifluoromethyl)pyridin-2-yl)methyl)naphthalene-1,4-dione]: less than 50 nM.
On the same count and under the same terms, the same measure for `CC1=C(Cc2ccc(C(F)(F)F)cn2)C(=O)c2cccc(F)c2C1=O` [Example 46, 5-fluoro-3-methyl-2-((5-(trifluoromethyl)pyridin-2-yl)methyl)naphthalene-1,4-dione]: less than 50 nM.
Take `CCCC1=C(Cc2ccc(Cl)cn2)C(=O)c2ccccc2C1=O` [Example 106, 2-((5-chloropyridin-2-yl)methyl)-3-propylnaphthalene-1,4-dione]: the EC50 is less than 50 nM.
On the same count and under the same terms, the same measure for `CCCC1=C(Cc2ccc(C(F)(F)F)nn2)C(=O)c2ccccc2C1=O` [Example 107, 2-propyl-3-((6-(trifluoromethyl)pyridazin-3-yl)methyl)naphthalene-1,4-dione]: less than 50 nM.
On the same count and under the same terms, the same measure for `CCCC1=C(Cc2ncc(C(F)(F)F)cc2F)C(=O)c2ccccc2C1=O` [Example 108, 2-((3-fluoro-5-(trifluoromethyl)pyridin-2-yl)methyl)-3-propylnaphthalene-1,4-dione]: 50 to 250 nM.
Turning to `CCCC1=C(Cc2cc(C#N)c(F)cn2)C(=O)c2ccccc2C1=O` [Example 110, 2-((1,4-dioxo-3-propyl-1,4-dihydronaphthalen-2-yl)methyl)-5-fluoroisonicotinonitrile], the 50% effective concentration (EC50) was less than 50 nM.
Turning to `CCCC1=C(Cc2ncc(F)cc2C)C(=O)c2ccccc2C1=O` [Example 111, 2-((5-fluoro-3-methylpyridin-2-yl)methyl)-3-propylnaphthalene-1,4-dione], the EC50 was in the range of 50 to 250 nM.
Same read-out and setting: the same measure for `CCCC1=C(Cc2ccc(F)c(C#N)n2)C(=O)c2ccccc2C1=O` [Example 112, 6-((1,4-dioxo-3-propyl-1,4-dihydronaphthalen-2-yl)methyl)-3-fluoropicolinonitrile]: less than 50 nM.

The record behind these values is patent US20230002324A1, “NAPHTHOQUINONE DERIVATIVES FOR TREATMENT OF OXIDATIVE STRESS DISORDERS” (PTC THERAPEUTICS, INC., priority 2019, published 2023).
